Reference: publication PMC4641920, “Structural Determinants for Substrate Binding and Catalysis in Triphosphate Tunnel Metalloenzymes” (The Journal of Biological Chemistry, 2015)

Tests used:
mouse ThTPase [1] = target: T1, mouse ThTPase (Mus musculus, UniProt Q8JZL3); experiment: X-ray crystal structure of product complex (soak); assay type: binding; details: pH 9.0, 0.2 M MgCl2 in crystallization buffer
T1 construct: gene Thtpa; full-length, codon-optimized synthetic gene; pMH-HT, His6 tag cleaved by TEV as for AtTTM3; expressed in E. coli
T1 sequence (Q8JZL3 1-224): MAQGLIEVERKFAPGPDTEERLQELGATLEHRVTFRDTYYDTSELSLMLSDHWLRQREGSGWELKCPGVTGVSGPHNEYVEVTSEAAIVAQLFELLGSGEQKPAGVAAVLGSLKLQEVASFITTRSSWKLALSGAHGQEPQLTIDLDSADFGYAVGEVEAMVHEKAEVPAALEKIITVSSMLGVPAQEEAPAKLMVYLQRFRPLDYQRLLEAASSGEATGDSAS

mouse ThTPase [2] = target: T1, mouse ThTPase; experiment: X-ray crystal structure of complex (soak); assay type: binding; details: 10 mM MgCl2; low pH where activity is minimal (text: pH 6; methods: buffer pH 6.8); tunnel active site
ygiF = target: T2, ygiF (Escherichia coli, UniProt P30871); experiment: X-ray crystal structure of complex (soak); assay type: binding; details: MgCl2 (5a60) or MnCl2 (5a61), 5 mM; tunnel active site
T2 construct: full-length, tunnel domain plus CHAD domain; pMH-HT, His6 tag cleaved by TEV as for AtTTM3; expressed in E. coli
T2 sequence (P30871 whole entry, the tested form may be a part): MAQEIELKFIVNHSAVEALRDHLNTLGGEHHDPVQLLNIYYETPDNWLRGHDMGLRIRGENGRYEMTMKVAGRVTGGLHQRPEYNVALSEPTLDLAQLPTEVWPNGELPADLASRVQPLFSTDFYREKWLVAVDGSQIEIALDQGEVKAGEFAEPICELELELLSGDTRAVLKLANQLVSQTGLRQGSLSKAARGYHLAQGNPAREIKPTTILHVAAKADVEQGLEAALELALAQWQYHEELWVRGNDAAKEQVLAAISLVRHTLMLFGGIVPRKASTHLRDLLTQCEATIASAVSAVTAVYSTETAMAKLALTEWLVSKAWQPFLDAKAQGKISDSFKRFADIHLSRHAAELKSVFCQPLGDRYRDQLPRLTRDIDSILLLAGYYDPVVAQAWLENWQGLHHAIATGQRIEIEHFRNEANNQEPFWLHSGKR

Vtc4p = target: T3, Vtc4p (Saccharomyces cerevisiae, UniProt P47075); experiment: polyP synthesis, urea PAGE with DAPI stain; assay type: biochemical; details: 10 mM ATP, 1 mM MnCl2, pH 8.3, room temperature overnight
T3 construct: gene VTC4; probably the cytoplasmic tunnel domain of earlier work
T3 sequence (P47075 189-480 limits assumed): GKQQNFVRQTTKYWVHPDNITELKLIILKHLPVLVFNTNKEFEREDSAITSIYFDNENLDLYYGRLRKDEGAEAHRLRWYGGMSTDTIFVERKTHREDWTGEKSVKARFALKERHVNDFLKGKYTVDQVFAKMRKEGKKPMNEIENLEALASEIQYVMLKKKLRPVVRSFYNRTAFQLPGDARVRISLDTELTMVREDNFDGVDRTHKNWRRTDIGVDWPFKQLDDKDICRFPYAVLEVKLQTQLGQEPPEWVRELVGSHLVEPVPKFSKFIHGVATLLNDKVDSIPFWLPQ

## Cc1ncc(C[n+]2csc(CCOP(=O)(O)OP(=O)(O)O)c2C)c(N)n1 [ThDP]
Mouse ThTPase [1]; tunnel active site, Pi also bound
  X-ray crystal structure of product complex (soak): with a ThDP molecule and an orthophosphate located in the tunnel center

## O=P(O)(O)O [orthophosphate]
Mouse ThTPase [1]; bound by Arg-125 near metal site 2, with ThDP
  X-ray crystal structure of product complex (soak): with a ThDP molecule and an orthophosphate located in the tunnel center

## Cc1ncc(C[n+]2csc(CCOP(=O)(O)OP(=O)(O)OP(=O)(O)O)c2C)c(N)n1 [thiamine triphosphate]
Mouse ThTPase [2]
  X-ray crystal structure of complex (soak): we found an intact ThTP molecule bound in the tunnel center of ThTPase

## O=P(O)(O)OP(=O)(O)OP(=O)(O)O [tripolyphosphate]
ygiF
  X-ray crystal structure of complex (soak): solved structures of ygiF in complex with PPPi and in the presence of either MgCl2

## Nc1ncnc2c1ncn2[C@@H]1O[C@H](COP(=O)(O)OP(=O)(O)OP(=O)(O)O)[C@@H](O)[C@H]1O [ATP]
Vtc4p
  polyP synthesis, urea PAGE with DAPI stain: only Vtc4p can generate inorganic polyphosphate from ATP
